Data as given in patent US4080450A, “2-Carbamoyl-1,2,4,5-tetrahydro-3H-2-benzazepin-3-ones” (U C B, Societe Anonyme, priority 1976, dated 1978).
Where “and” joins values, the source holds several entries; their conditions need not be identical. Equal values may be shown once. Read-outs that look alike come from different tables or passages of the source.

Legend:
[1] = active avoidance test (memory retention); assay type: in vivo, rat; conditions: for minimal effective dose: Rattus norvegicus, sc, subcutaneous, minimum dose which lowers the stimulus to below 110 g
Excerpt: The principle of the active avoidance test, which has been developed in our laboratories and used for this purpose, may be described as follows: the withdrawal reaction of a rat's paw subjected to increasing and measured pressure is observed. The pressure at which the withdrawal reaction is produced is called the reaction threshold. The latter is expressed in grams and thus corresponds to the minimum pressure which, when applied to the paw of the animals causes withdrawal. It is read off directly from a scale on the apparatus used. […] A minimum of 20 rats are used for each test (10 treated rats and 10 control rats), the active dose being defined as the minimum dose which lowers the stimulus to below 110 g.
*Stimulus (expressed in g.) initiating the avoidance reaction 24 hours
after the first stimulation.

[2] = Brevatonal test (protection against hypoxic type aggressions); assay type: in vivo, mice; conditions: i.p.
Procedure: At the doses used, this curarizing agent brings about a respiratory depression which, in turn, brings about a hypoxi-hypercapnic syndrome. A compound capable of protecting the brain during this short period of hypoxia ensures survival. The compounds are administered to groups of 10 mice one hour before the injection of the curarizing agent; concurrently herewith, a control group of 10 mice is given a physiological salt solution prior to the curarizing agent. For each compound, the proportion of mice which survive is compared to the proportion of control mice which survive by the "Fisher exact probability test". This test, called the Brevatonal test, has also been developed in our laboratories.
Intraperitoneal administration (i.p.) of compounds according to the present invention, namely, 2-methylcarbamoyl-1,2,4,5-tetrahydro-3H-2-benzazepin-3-one (compound A), 4,5-dimethyl-2-methylcarbamoyl-1,2,4,5-tetrahydro-3H-2-benzazepin-3-one (compound B) and 4-n-butyl-2-methylcarbamoyl-1,2,4,5-tetrahydro-3H-2-benzazepin-3-one (compound I) under these conditions produced the effects summarized in the following Table II.

[3] = spinal fixation time test (elementary model of memory); assay type: in vivo, rat; conditions: i.p.
Excerpt: Action on the mnemic processes is shown, in particular, by a reduction in the time for spinal fixation, a test which has been described in the literature (C. GIURGEA and F. MOURAVIEFF-LESUISSE, Arch.Int.Pharmacodyn. 191,(2),(1971),279) as an elementary model of memory and which is endowed with a pharmacological reactivity in good correlation with the clinical physiopathology. In the rat, after unilateral lesion of the cerebellum, there is a postural asymmetry of the hind paws. This asymmetry may persist, even after spinal section, if the animal has been in this situation for a sufficiently long period of time. This time, which is called the spinal fixation time, is 45 minutes under the experimental conditions. On the other hand, if spinal section is performed before the expiry of this period, for example 35 minutes after the onset of the asymmetry, the latter disappears. […] Conversely, any compound which allows the rats to retain the asymmetry (thus achieving spinal fixation) when the spinal section is carried out after 35 minutes, is regarded as being active.
Under these conditions, administration of a compound according to the present invention, for example 2-methyl-carbamoyl-1,2,4,5-tetrahydro-3H-2-benzazepin-3-one (compound A) or 4,5-dimethyl-2-methylcarbamoyl-1,2,4,5-tetrahydro-3H-2-benzazepin-3-one(compound B), produces the following effects: […]

[4] = 30 mg./kg. (0.2 mmole/kg.), Giurgea and Mouravieff-Lesuisse, cited from earlier work
[5] = toxicity, lethal dose (LD50); conditions: in vivo, ip; rat, intraperitoneal
Procedure: The new compounds according to the present invention appear to have a remarkably low toxicity. For example, for compound A, the lethal dose (LD50) in the rat, when administered intraperitoneally, is more than 1000 mg./kg.

CCCCNC(=O)N1C(=O)CCc2cc(OC)ccc2C1c1ccccc1 (stereo not shown) [G, 2-n-butylcarbamoyl-7-methoxy-1-phenyl-1,2,4,5-tetrahydro-3H-2-benzazepin-3-one]
Stimulus initiating the avoidance reaction 24 hours after the first stimulation ([1]; subcut. dose 0.72 mg./kg.): 106 g
Stimulus initiating the avoidance reaction 24 hours after the first stimulation ([1]; subcut. dose 3.66 mg./kg.): 95 g

CNC(=O)N1Cc2ccccc2[C@@H](C)[C@@H](C)C1=O (relative stereo) [B, 4,5-dimethyl-2-methylcarbamoyl-1,2,4,5-tetrahydro-3H-2-benzazepin-3-one]
minimal effective dose [1]: 1.23 mg/kg and 5 µmol/kg
Stimulus initiating the avoidance reaction 24 hours after the first stimulation ([1]; subcut. dose 0.49 mg./kg., control (dose 0) 152): 124 g
Stimulus initiating the avoidance reaction 24 hours after the first stimulation ([1]; subcut. dose 1.23 mg./kg., control (dose 0) 152): 107 g
Proportion of survivors, treated animals ([2]; 25 mg./kg. (0.1 mmole/kg.), control 1/10): 7/10
spinal fixation after 35 minutes (animals) ([3]; 24 mg./kg. (0.1 mmole/kg.)): three animals out of seven

CCCCNC(=O)N1Cc2ccccc2CCC1=O [F, 2-n-butylcarbamoyl-1,2,4,5-tetrahydro-3H-2-benzazepin-3-one]
minimal effective dose [1]: < 0.2 mg/kg and < 0.8 µmol/kg
Stimulus initiating the avoidance reaction 24 hours after the first stimulation ([1]; subcut. dose 0.2 mg./kg., control (dose 0) 159): 92 g

NC(=O)CN1CCCC1=O [piracetam, reference compound]
spinal fixation after 35 minutes (animals) ([4]; same conditions): four animals out of nine
activity in spinal fixation test [4]: active
minimal effective dose [1]: 3.5 mg/kg and 25 µmol/kg
Stimulus initiating the avoidance reaction 24 hours after the first stimulation ([1]; subcut. dose 1.5 mg./kg., control (dose 0) 153): 120 g
Stimulus initiating the avoidance reaction 24 hours after the first stimulation ([1]; subcut. dose 3.5 mg./kg., control (dose 0) 153): 90 g
retention of the earlier test ([1]; tested 24 hours later, versus control animals): significant degree of retention
Proportion of survivors, treated animals ([2]; 45 mg./kg. (0.32 mmole/kg.), control 0/10): 1/10
Proportion of survivors, treated animals ([2]; 142 mg./kg. (1 mmole/kg.), control 2/10): 4/10
Proportion of survivors, treated animals ([2]; 454 mg./kg. (3.2 mmole/kg.), control 1/10): 8/10

CCCCC1Cc2ccccc2CN(C(=O)NC)C1=O (stereo not shown) [I, 4-n-butyl-2-methylcarbamoyl-1,2,4,5-tetrahydro-3H-2-benzazepin-3-one]
Proportion of survivors, treated animals ([2]; 27 mg./kg. (0.1 mmole/kg.), control 1/10): 7/10
Proportion of survivors, treated animals ([2]; 87 mg./kg. (0.32 mmole/kg.), control 1/10): 8/10

CNC(=O)N1Cc2ccccc2CCC1=O [A, 2-methylcarbamoyl-1,2,4,5-tetrahydro-3H-2-benzazepin-3-one]
minimal effective dose [1]: 2.18 mg/kg and 10 µmol/kg
Stimulus initiating the avoidance reaction 24 hours after the first stimulation ([1]; subcut. dose 1.09 mg./kg., control (dose 0) 159): 120 g
Stimulus initiating the avoidance reaction 24 hours after the first stimulation ([1]; subcut. dose 2.18 mg./kg., control (dose 0) 159): 89 g
LD50 [5]: > 1000 mg/kg
Proportion of survivors, treated animals ([2]; 70 mg./kg. (0.32 mmole/kg.), control 1/10): 6/10
spinal fixation after 35 minutes (animals) ([3]; 70 mg./kg. (0.3 mmole/kg.)): three animals out of five

CNC(=O)N1Cc2ccc(Cl)cc2CC(C)C1=O (stereo not shown) [E, 7-chloro-4-methyl-2-methylcarbamoyl-1,2,4,5-tetrahydro-3H-2-benzazepin-3-one]
minimal effective dose [1]: 0.53 mg/kg and 2 µmol/kg
Stimulus initiating the avoidance reaction 24 hours after the first stimulation ([1]; subcut. dose 0.26 mg./kg., control (dose 0) 163): 115 g
Stimulus initiating the avoidance reaction 24 hours after the first stimulation ([1]; subcut. dose 0.53 mg./kg., control (dose 0) 163): 83 g

CC1CC(=O)N(C(=O)N2CCOCC2)Cc2ccccc21 (stereo not shown) [C, 5-methyl-2-morpholinocarbonyl-1,2,4,5-tetrahydro-3H-2-benzazepin-3-one]
minimal effective dose [1]: 2.88 mg/kg and 10 µmol/kg
Stimulus initiating the avoidance reaction 24 hours after the first stimulation ([1]; subcut. dose 0.28 mg./kg., control (dose 0) 173): 116 g
Stimulus initiating the avoidance reaction 24 hours after the first stimulation ([1]; subcut. dose 2.88 mg./kg., control (dose 0) 173): 98 g

CN(C)C(=O)N1Cc2ccccc2CCC1=O [H, 2-dimethylcarbamoyl-1,2,4,5-tetrahydro-3H-2-benzazepin-3-one]
minimal effective dose [1]: 2.32 mg/kg and 10 µmol/kg
Stimulus initiating the avoidance reaction 24 hours after the first stimulation ([1]; subcut. dose 2.32 mg./kg.): 90 g

CNC(=O)N1Cc2ccc(Cl)cc2CCC1=O [D, 7-chloro-2-methylcarbamoyl-1,2,4,5-tetrahydro-3H-2-benzazepin-3-one]
minimal effective dose [1]: 2.52 mg/kg and 10 µmol/kg
Stimulus initiating the avoidance reaction 24 hours after the first stimulation ([1]; subcut. dose 1.26 mg./kg., control (dose 0) 157): 122 g
Stimulus initiating the avoidance reaction 24 hours after the first stimulation ([1]; subcut. dose 2.52 mg./kg., control (dose 0) 157): 100 g
